The values that follow come from ChEMBL document CHEMBL1154793, “The lecanindoles, nonsteroidal progestins from the terrestrial fungus Verticillium lecanii 6144” (J Nat Prod, 2009).

In general, IC50 refers to the concentration that gives 50% inhibition.

One assay addresses T1, Androgen receptor (Homo sapiens, UniProt P10275).
T1 sequence (P10275 whole entry): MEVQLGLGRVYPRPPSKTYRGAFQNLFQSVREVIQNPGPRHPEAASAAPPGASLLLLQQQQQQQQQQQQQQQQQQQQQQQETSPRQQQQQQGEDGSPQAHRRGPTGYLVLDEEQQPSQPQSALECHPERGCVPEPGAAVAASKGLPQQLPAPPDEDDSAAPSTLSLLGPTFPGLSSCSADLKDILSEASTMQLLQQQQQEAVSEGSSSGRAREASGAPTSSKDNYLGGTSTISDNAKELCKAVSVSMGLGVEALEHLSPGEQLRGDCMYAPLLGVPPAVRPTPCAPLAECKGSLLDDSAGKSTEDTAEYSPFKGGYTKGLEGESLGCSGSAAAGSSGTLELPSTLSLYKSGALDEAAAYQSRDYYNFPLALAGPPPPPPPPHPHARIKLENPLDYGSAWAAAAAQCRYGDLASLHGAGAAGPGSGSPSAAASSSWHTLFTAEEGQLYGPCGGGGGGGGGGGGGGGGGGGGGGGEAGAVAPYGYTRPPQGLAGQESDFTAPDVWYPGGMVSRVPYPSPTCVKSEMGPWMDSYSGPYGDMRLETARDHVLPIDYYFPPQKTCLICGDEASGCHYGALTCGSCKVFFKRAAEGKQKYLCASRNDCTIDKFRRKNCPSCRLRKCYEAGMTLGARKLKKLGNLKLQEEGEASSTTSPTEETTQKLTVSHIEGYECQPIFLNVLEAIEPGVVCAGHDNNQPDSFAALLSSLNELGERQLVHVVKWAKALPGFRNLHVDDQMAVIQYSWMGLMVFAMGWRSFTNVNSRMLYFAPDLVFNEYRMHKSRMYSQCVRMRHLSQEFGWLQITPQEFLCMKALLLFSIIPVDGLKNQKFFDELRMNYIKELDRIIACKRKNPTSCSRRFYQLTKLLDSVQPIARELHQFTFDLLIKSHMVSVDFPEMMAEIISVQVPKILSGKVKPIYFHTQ
Briefly: Agonist activity at androgen receptor ligand binding domain expressed in african green monkey COS7 cells co-transfected with Gal4-DBD up to 10 uM by luciferase reporter gene assay. The assay is classed as cell-based. The conditions noted are these: cos-7.

The target of assay [1] is T2, Progesterone receptor (Homo sapiens) (UniProt P06401).
T2 sequence (whole entry): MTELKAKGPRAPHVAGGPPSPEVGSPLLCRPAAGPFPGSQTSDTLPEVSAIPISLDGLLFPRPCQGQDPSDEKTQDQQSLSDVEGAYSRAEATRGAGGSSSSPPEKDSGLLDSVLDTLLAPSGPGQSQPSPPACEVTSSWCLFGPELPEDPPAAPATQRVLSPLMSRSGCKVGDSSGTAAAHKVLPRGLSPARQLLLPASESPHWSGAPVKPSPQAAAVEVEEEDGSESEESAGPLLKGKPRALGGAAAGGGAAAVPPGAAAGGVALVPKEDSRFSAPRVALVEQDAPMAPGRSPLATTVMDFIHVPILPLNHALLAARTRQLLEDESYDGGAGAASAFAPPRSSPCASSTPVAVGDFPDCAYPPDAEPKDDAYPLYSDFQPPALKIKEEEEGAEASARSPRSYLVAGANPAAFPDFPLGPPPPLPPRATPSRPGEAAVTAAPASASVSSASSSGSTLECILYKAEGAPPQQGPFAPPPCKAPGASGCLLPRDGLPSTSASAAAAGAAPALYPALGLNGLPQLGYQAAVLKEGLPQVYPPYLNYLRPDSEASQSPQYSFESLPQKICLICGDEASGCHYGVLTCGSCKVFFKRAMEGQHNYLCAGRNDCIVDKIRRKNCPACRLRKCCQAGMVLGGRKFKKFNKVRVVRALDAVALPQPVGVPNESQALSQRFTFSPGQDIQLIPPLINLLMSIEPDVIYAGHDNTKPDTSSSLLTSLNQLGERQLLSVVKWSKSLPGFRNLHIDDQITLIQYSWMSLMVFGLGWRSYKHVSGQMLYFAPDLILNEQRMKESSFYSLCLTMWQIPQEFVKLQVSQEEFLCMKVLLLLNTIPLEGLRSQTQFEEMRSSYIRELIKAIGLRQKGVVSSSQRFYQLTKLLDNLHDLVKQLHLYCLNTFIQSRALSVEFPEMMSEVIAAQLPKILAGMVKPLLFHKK
Briefly: Activation of progesterone receptor in human T47D cells after 20 hrs by PRE-tagged luciferase reporter gene assay relative to control. Type of assay: cell-based. In general terms: A reporter such as luciferase makes a cellular process visible.

The target in assay [2] is T3, Mineralocorticoid receptor (Homo sapiens) (UniProt P08235).
T3 sequence (whole entry): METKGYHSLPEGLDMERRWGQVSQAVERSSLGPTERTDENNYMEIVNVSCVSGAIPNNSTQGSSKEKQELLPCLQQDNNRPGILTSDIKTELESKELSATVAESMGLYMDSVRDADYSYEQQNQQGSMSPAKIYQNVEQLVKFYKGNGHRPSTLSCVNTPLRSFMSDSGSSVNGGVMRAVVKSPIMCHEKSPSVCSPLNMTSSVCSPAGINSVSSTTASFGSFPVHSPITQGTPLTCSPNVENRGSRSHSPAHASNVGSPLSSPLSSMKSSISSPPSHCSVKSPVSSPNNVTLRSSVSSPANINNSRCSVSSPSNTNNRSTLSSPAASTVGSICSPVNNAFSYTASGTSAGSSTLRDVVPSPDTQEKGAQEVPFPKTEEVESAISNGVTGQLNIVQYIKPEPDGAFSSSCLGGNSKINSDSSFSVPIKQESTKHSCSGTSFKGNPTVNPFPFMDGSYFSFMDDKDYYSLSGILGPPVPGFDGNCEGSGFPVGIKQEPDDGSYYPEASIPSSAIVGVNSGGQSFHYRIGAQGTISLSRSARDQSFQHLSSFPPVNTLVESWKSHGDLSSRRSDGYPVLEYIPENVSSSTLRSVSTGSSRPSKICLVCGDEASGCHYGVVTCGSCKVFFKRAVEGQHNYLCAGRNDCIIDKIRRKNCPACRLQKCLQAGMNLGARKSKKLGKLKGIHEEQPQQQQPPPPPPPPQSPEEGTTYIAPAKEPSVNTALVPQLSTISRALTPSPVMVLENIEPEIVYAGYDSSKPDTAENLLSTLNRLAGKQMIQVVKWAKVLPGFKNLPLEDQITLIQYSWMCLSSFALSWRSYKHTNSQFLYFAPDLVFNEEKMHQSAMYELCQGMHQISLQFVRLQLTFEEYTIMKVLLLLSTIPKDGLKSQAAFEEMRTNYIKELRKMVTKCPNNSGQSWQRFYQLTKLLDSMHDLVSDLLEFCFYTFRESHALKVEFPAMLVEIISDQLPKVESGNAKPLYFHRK
The assay is described as follows: Antagonist activity at mineralocorticoid receptor ligand binding domain expressed in african green monkey COS7 cells co-transfected with Gal4-LBD by luciferase reporter gene assay relative to control. The assay is classed as cell-based. Also noted: scale not given: the % may be the effect or the level left. The conditions noted are these: COS-7.

The next assay deals with Estrogen receptor beta (Homo sapiens, UniProt Q92731). The assay is described as follows: Agonist activity at estrogen receptor beta ligand binding domain expressed in african green monkey COS7 cells co-transfected with Gal4-LBD up to 10 uM by luciferase reporter gene assay. Particulars: cos-7; call rule not given here. Type of assay: cell-based.
Sequence of Estrogen receptor beta (Q92731 whole entry, the tested form may be a part): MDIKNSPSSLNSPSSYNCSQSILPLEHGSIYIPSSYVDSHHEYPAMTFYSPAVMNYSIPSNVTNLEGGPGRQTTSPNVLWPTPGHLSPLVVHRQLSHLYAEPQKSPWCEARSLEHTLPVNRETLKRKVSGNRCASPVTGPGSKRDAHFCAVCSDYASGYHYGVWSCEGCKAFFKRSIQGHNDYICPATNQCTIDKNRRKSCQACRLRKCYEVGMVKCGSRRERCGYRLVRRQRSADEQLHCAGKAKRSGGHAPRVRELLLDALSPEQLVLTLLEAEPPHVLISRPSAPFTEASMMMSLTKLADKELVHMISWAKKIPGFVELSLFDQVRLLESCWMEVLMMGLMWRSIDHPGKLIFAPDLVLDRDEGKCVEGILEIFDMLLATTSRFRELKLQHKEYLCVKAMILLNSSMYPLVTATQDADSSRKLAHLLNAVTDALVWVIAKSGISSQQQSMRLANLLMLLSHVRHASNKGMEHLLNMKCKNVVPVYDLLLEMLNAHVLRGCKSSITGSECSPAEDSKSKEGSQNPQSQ
The target of assay [3] is T4, Mineralocorticoid receptor (Homo sapiens, UniProt P08235).
T4 sequence (P08235 whole entry): T3 sequence (whole entry)

Structures are written as SMILES. Bounds are passed on as bounds.

For `CC1(C)C(=O)CC[C@]2(C)[C@@]3(C)c4[nH]c5ccccc5c4C[C@@H]3CC[C@@]12O` [LECANINDOLE B], the EC50 entry at Androgen receptor and on Estrogen receptor beta was “Not Active” in each case. Further, the Efficacy in assay [1] was < 1%. This compound also came in with an Activity in assay [2] of 47%. For the same compound, in assay [3], the IC50 is > 10 mM.
For `CC1(C)[C@H](O)CC[C@]2(C)[C@@]3(C)c4[nH]c5ccccc5c4C[C@@H]3CC[C@@]12O` [LECANINDOLE D], the EC50 result on Androgen receptor and at Estrogen receptor beta was “Not Active” throughout. In assay [1], this compound gave an Efficacy of 68%. The Activity in assay [2] turned out to be 82%. Also, the half-inhibitory concentration (IC50) in assay [3] is > 3 mM.
